From patent EP0549002A1, “Method for the preparation of an antiseptic composition containing clindamycin-hydrochloride and polymyxin” (priority 1991, dated 1993) come the findings set out here.

As a reminder, the MIC is the lowest concentration found to suppress growth. High values mean weaker potency, low ones greater potency.

Data set [1] in a line: Acute toxicity (general statement). In kind it is in vivo. The following applies: in combination with Clindamycin; mammals and humans.
The test system of data set [2] is Mycoplasma hyorhinis type strain BTS-7. The data set is described as follows: MIC by serial broth dilution method (Friis broth, glucose metabolism colour change). Format: cell-based. The following applies: single agent; read at day 5; 37°C aerobic. The procedure: Friis-broth was added to each well.
On the technique in general: Broth dilution looks for growth in wells or tubes with falling amounts of substance.

Data set [3] has as its system Pasteurella haemolytica 3R188 and 6R132. Kind of data set: MIC by plate dilution method (horseblood-agar). The following applies: both P. haemolytica isolates; single agent; observed during 24 hours. Format: cell-based. The protocol:
Two clinical isolates of Pasteurella haemolytica were studied. The bacteria were isolated from calves and identified. The isolates included P. haemolytica 3R188 and 6R132.
The strength of the inoculating suspension was 2 MacFarland. The plates were observed during 24 hours after incubation.

Take Polymyxin E (Colistin): in data set [1], the acute toxicity entry is given as “strikingly reduced”. In data set [2], the minimum inhibitory concentration (MIC) is above 50 µg/mL. Moreover, the “minimal inhibitory concentrations (MICs)” value in data set [3] is listed as 1,6 µg/ml.
